Source: patent publication US12084420B2, “Indoline compounds for inhibiting KIF18A” (Volastra Therapeutics, Inc., priority 2021, dated 2024)
pIC50, pKi: −log10 of the molar value. Read-outs that look alike come from different tables or passages of the source.

Experiments:
[1] = biological target: KIF18a-Microtubule Complex (Homo sapiens (Human), UniProt Q8NI77); assay: Binding kinetics to KIF18a-microtubule complex (global progress curve analysis); settings: for kon (on-rate from binding kinetics assay): global progress curve analysis; for pKi: read-out: KI (determined from binding kinetic assay koff/kon), koff/kon; for koff: read-out: koff (off-rate from binding kinetics assay)
Procedure, shortened: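 kon and koff determined by global progress curve analysis, with ADP formation measured by ADP-Glo. Time- and dose-dependent progress curves were globally fitted to a Michaelis-Menten model with one-step slow-binding inhibition.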

HCC15 cells = assay: Cell viability of KIF18a-sensitive cell lines, HCC15 (Cell Titre-Glo, 7 days); assay type: cell-based; settings: HCC15, 168 h; HCC-15 cells, 7 days, Cell Titre-Glo; read-out: HCC-15 IC50
Procedure, shortened: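 Seeding was 24 h before dosing: HCC15 at 600 cells/well in RPMI-1640/10% FBS, OVCAR-3 at 1000 cells/well in RPMI-1640/20% FBS plus insulin, JIMT-1 at 1000 cells/well in DMEM/10% FBS. After serially diluted compound, cells grew 7 days at 37° C. Cell Titre-Glo luminescence was converted to ATP; IC50 came from a four-parameter fit.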

NIH:OVCAR-3 cells = assay: Cell viability of KIF18a-sensitive cell lines, NIH:OVCAR-3 (Cell Titre-Glo, 7 days); assay type: cell-based; settings: Homo sapiens, OVCAR-3, 168 h; NIH-OVCAR3 cells, 7 days, Cell Titre-Glo; read-out: NIH-OVCAR3 IC50
Method: (§1) Cell Viability of KIF18a-Sensitive Cell Lines
(§2) Cell lines were seeded as follows 24 hours before compound treatment: HCC15 (Korean Cell Line Bank) 600 cell/well, 95 μL of RPMI-1640 media supplemented with 100 units/mL penicillin, 100 units/mL streptomycin and 10% FBS; NIH:OVCAR-3 (ATCC), 1000 cell/well, 95 μL of RPMI-1640 media supplemented with 100 units/mL penicillin, 100 units/mL streptomycin, 0.01 mg/mL bovine insulin, and 20% FBS; JIMT-1 (Addexbio) 1000 cell/well, 95 μL of DMEM media supplemented with 100 units/mL penicillin, 100 units/mL streptomycin, and 10% FBS.
(§3) Test compounds were added to cells in a 20× dilution scheme by adding 5 μL of serially diluted compound to the plate, and the treated cells were incubated for an additional 7 days in a 37° C., 5% CO2 incubator. DMSO was used as the negative control (0% effect), and wells omitting cells were used as the positive control (100% effect). The cells were incubated for seven days, and cell viability determined via the Promega Cell Titre-Glo® Assay kit. Luminescence units were converted to ATP concentrations via an ATP standard curve (10 point, 2-fold dilution from 5 uM). % Inhibition was calculated for each well as: ([max−min]−[test−min])/[max−min]. IC50 values were calculated from concentration vs. % Inhibition data via a four-parameter variable slope model.

JIMT-1 cells = assay: Cell viability of KIF18a-sensitive cell lines, JIMT-1 (Cell Titre-Glo, 7 days); assay type: cell-based; settings: Homo sapiens, 168 h; JIMT-1 cells, 7 days, Cell Titre-Glo; read-out: JIMT-1 IC50
Method: as §1, §2, §3

[2] = system: OVCAR-3 tumor cells implanted in Balb/C nude mice; assay: In vivo activity, OVCAR-3 tumor xenograft, tumor growth inhibition; design: species or system mouse; settings: OVCAR3 model
Method: (§4) Assessment of In Vivo Activity
(§5) OVCAR-3 (ATCC) tumor cells were maintained in vitro in RPMI-1640 medium supplemented with 20% fetal bovine serum, 0.01 mg/mL bovine insulin and 1% Anti-Anti at 37° C. in an atmosphere of 5% CO2 in air. HCC15 (DSMZ) tumor cells were maintained in vitro in RPMI 1640 medium supplemented with 10% fetal bovine serum and 1% Anti-Anti at 37° C. in an atmosphere of 5% CO2 in air.
(§6) The tumor cells were sub-cultured twice weekly. The cells growing in an exponential growth phase were harvested and counted for tumor inoculation.
(§7) Tumor cells (10×10^6) in 0.2 mL of PBS mixed with Matrigel (50:50) were inoculated subcutaneously on the right flank of each mouse. When the average tumor volume reached 110-175 mm^3, animals were randomized into groups of 10 and treatment started. OVCAR-3 cells were implanted in Balb/C nude mice, and HCC15 cell were implanted in SCID Beige mice.
(§8) Compounds were dosed once or twice a day (12 h) orally. Tumor Growth Inhibition (TGI) was calculated using the formula: TGI (%)=[1−(TN−T0)/(VN−V0)]×100; TN is the average tumor volume of a treatment group at the indicated timepoint, T0 is the average tumor volume of the treatment group on treatment day 0, VN is the average tumor volume of the vehicle control group at the indicated timepoint, and V0 is the average tumor volume of the vehicle group on treatment day 0. P value was calculated based on tumor size by One-Way ANOVA with GraphPad Prism 9.4.0 compared with the vehicle group, respectively. **** indicates p<0.0001.
(§9) The tumor volume of vehicle- and compound-treated mice as a function of time after start of treatment and the results of treatments with selected compounds on SCID Beige mice or nude mice implanted with HCC15 or OVCAR-3 are shown in FIGS. 1A-1E.

[3] = system: HCC15 tumor cells implanted in SCID Beige mice; assay: In vivo activity, HCC15 tumor xenograft, tumor growth inhibition; design: species or system mouse; settings: HCC15 model
Method: as §4, §5, §6, §7, §8, §9

hKIF18A (1-374) = hKIF18A (1-374) (Homo sapiens (Human), UniProt Q8NI77); assay: Inhibition of KIF18A microtubule-dependent ATPase activity (ADP-Glo)
[4] = KIF18A microtubule-dependent ATPase activity, biochemical assay

Chain of hKIF18A (1-374) (Q8NI77 whole entry, looked up): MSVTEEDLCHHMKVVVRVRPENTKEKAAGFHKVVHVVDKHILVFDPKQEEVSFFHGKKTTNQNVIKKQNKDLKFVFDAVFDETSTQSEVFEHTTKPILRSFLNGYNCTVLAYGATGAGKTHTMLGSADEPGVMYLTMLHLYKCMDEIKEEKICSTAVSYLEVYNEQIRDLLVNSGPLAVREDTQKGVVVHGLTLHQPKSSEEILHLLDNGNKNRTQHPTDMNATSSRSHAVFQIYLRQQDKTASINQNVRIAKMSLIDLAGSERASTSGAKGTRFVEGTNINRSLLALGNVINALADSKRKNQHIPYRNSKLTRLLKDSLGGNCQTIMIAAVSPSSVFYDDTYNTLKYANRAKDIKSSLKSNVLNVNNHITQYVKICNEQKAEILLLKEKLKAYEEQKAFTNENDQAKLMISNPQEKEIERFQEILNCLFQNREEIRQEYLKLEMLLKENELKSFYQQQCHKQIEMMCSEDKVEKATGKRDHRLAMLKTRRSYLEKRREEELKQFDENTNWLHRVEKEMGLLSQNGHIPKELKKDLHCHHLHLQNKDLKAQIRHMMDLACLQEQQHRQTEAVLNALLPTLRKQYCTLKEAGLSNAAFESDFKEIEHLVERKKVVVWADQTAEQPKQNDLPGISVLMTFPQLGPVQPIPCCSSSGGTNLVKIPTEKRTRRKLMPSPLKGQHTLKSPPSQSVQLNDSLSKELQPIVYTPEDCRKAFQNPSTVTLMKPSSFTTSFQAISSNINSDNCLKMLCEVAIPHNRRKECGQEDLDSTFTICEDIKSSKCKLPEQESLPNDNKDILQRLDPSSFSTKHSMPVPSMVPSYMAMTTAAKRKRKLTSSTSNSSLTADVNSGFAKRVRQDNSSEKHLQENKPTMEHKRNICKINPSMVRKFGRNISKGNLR
Chain of hKIF18A (1-374) (Q2XVP4 whole entry partner, looked up): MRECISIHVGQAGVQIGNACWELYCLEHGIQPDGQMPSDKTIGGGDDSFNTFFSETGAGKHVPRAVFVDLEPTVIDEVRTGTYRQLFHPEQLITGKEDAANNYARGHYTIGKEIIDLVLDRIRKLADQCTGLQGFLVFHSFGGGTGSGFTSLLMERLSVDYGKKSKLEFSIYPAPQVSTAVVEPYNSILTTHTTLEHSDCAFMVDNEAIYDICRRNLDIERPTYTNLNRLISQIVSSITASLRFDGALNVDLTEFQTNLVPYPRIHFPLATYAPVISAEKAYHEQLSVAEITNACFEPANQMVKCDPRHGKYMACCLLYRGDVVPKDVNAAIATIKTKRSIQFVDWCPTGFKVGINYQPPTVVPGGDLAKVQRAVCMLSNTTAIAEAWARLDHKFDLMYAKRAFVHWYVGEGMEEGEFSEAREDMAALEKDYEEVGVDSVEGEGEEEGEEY
Chain of hKIF18A (1-374) (P02554 whole entry partner, looked up): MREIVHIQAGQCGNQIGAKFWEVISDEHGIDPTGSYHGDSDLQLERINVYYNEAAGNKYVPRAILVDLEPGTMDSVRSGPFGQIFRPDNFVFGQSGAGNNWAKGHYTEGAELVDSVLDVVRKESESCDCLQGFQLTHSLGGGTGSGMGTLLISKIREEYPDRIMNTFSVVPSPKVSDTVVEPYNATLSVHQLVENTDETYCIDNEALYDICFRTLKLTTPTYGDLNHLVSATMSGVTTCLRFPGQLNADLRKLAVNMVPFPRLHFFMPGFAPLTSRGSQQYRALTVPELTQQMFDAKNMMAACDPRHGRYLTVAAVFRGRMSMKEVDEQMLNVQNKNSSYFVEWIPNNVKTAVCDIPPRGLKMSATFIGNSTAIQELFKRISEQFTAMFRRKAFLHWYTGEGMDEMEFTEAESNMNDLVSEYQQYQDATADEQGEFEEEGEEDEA
Chain of KIF18a-Microtubule Complex (Q8NI77 whole entry, looked up): as the sequence (Q8NI77 whole entry, looked up) above
Chain of KIF18a-Microtubule Complex (Q2XVP4 whole entry partner, looked up): as the sequence (Q2XVP4 whole entry partner, looked up) above
Chain of KIF18a-Microtubule Complex (P02554 whole entry partner, looked up): as the sequence (P02554 whole entry partner, looked up) above

| kon (on-rate from binding kinetics assay) [1] [M⁻¹ s⁻¹] | disc. t1/2 (dissociation half-life ln(2)/koff) [1] [h] | pKi [1] | koff [1] [s⁻¹] | pIC50 (HCC15 cells) | pIC50 (NIH:OVCAR-3 cells) | pIC50 (hKIF18A (1-374); [4]) | pIC50 (hKIF18A (1-374)) | SMILES | pIC50 (JIMT-1 cells) | TGI ([2]; 10 mg/kg BID PO) [%] | TGI ([2]; 30 mg/kg BID PO, subfigure 1D) [%] | TGI ([2]; 30 mg/kg BID PO, subfigure printed 1R) [%] | TGI ([2]; 30 mg/kg QD PO) [%] | TGI ([2]; 60 mg/kg BID PO) [%] | TGI ([2]; 60 mg/kg QD PO) [%] | TGI ([3]; 10 mg/kg BID PO) [%] | TGI ([3]; 30 mg/kg BID PO) [%] | TGI ([3]; 60 mg/kg BID PO) [%] | TGI ([2]; 10 mg/kg QD PO) [%] |
| --- | --- | --- | --- | --- | --- | --- | --- | --- | --- | --- | --- | --- | --- | --- | --- | --- | --- | --- | --- |
| 15000 | 40 | 9.47 | 5e-06 | 8.29 | 8.29 | 7.80 | – | CCS(=O)(=O)Nc1ccc2c(c1)C1(CCC3(CC3)CC1)CN2C(=O)c1cccc(S(=O)(=O)NC(C)(C)C)c1 [Compound 134, N-(tert-butyl)-3-(5″-(ethylsulfonamido)dispiro[cyclopropane-1,1′-cyclohexane-4′,3″-indoline]-1″-carbonyl)benzenesulfonamide] | 8.40 | 60 ± 17 | 111 ± 1 | 110 ± 1 | 104 ± 7 | 112 ± 1 | 109 ± 2 | 61 ± 10 | 89 ± 7 | 94 ± 5 | – |
| 10600 | 38 | 9.26 | 5e-06 | 7.96 | 8.01 | 7.96 | 8.03 | CC(C)(C)NS(=O)(=O)c1cccc(C(=O)N2CC3(CCC4(CC4)CC3)c3cc(NS(C)(=O)=O)ccc32)c1 [Compound 22, N-(tert-butyl)-3-(5″- (methylsulfonamido)dispiro[cyclo-propane-1,1′-cyclohexane-4′,3″-indoline]-1″-carbonyl)benzenesulfonamide] | 8.11 | – | – | – | 72 ± 17 | – | 82 ± 10 | 30 ± 15 | 72 ± 6 | 82 ± 9 | 24 ± 26 |
